Test results published in PMC7956620 (Molecules, 2021).

Molecular target: T1, human 5-HT3A receptor (Homo sapiens, UniProt P46098)
T1 construct: host or cells: Xenopus laevis oocytes injected with in vitro transcribed mRNA
T1 sequence (P46098 24-478): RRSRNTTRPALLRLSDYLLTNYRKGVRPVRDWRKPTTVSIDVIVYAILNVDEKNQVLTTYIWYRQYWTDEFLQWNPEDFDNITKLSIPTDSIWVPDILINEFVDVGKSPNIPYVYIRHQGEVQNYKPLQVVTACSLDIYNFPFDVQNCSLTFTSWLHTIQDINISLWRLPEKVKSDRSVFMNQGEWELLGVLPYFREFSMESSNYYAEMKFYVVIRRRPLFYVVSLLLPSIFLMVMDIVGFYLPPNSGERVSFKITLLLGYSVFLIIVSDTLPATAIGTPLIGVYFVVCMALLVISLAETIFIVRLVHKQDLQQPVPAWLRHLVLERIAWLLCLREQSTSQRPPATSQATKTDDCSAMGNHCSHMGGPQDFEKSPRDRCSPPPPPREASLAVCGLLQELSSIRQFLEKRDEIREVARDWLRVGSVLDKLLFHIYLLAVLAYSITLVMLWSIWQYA
Experiment: cell-based
Format: cell-based
Protocol: Human 5-hydroxytryptamine (serotonin) receptor 3A cDNA (Genebank number: BC004453) was obtained from OriGene (Rockville, MD, USA). Figure 1A represents the chemical structure of two ergot alkaloids, EG and EC, obtained from Sigma-Aldrich (St. Louis, MO, USA). These ergot alkaloids were diluted in bath solution after dissolving in dimethyl sulfoxide (DMSO) for use as stock solutions. The final treatment concentration of DMSO was less than 0.01%. Xenopus laevis frogs were obtained from the Korean Xenopus Resource Center for Research (KXRCR000001, Chuncheon, Gangwondo, Korea), and other agents were purchased from Sigma-Aldrich.
To isolate oocytes, female Xenopus laevis were put into a container filled with ice and left for about one hour. When the blood vessels contracted and fell into a state similar to hibernation, the abdomen was incised, and the ovaries were removed and cut into small pieces in Ca^2+-free OR2 solution (82.5 mM NaCl, 2.5 mM KCl, 1 mM MgCl2, and 5 mM HEPES, pH 7.4) with 2 mg/mL collagenase. After a 2 h agitation to digest the follicle membranes, isolated oocytes in stages Ⅴ and Ⅵ were selected and washed repeatedly. The selected oocytes were maintained in ND96 incubation solution (96 mM NaCl, 2 mM KCl, 1.8 mM CaCl2, 1 mM MgCl2, 5 mM HEPES, 2.5 mM sodium pyruvate, and 50 µg/mL gentamycin, pH 7.4) at 16–18 °C. The solution containing the oocytes was changed twice a day and stored in a shaking incubator. Under the microscope, the end of a glass capillary was broken and fitted with a 20 µm diameter needle and filled with mineral oil, discharging air bubbles from the tip. When the Xenopus oocytes were ready for injection, 50 ng of mRNA was injected with a nanoliter injector (Drummond Scientific, Vernon Hills, IL, USA). The recording was started after two days of sufficient shaking incubation in ND96 solution. Surgery, microinjections, and the other handling of Xenopus laevis followed the standard protocols.
The oocytes in which mRNA was expressed during the incubation period allowed for the estimation of channel or receptor properties for observing drug and ligand potential interactions using a two-electrode voltage clamp (OC-725C; Warner Instruments, Hamden, CT, USA) and Digidata (1322A; Molecular Devices, Sunnyvale, CA, USA). The two-electrode voltage clamp had voltage and current electrodes that stably maintained the potential and delivered the transmembrane potential and high current. […] A computer transferred the converted output amplitude of the voltage clamp amplifiers to an input digital converter using pClamp 10 software (Axon Instruments, Union City, CA, USA). The voltage and current electrodes were filled with 3 M KCl (0.3–0.7 MΩ) and analyzed at a −80 mV holding potential. The oocytes were placed in the chamber and exposed to a ND96 solution at a flow rate of 2 mL per minute. In the electrophysiological experiments, the voltage ramp recording was performed at room temperature, and a current from −80 to +60 mV was applied to determine the current and voltage relationships. Inward peak traces of the 5-HT3A receptor and voltage ramp traces were converted to a value through Clampfit 9.0 (Molecular Devices, San Jose, CA, USA).
In the experiments, all data were represented as the mean ± SEM (standard error of the mean) of the 5-HT-stimulated inward peak in the 5-HT3A receptors. […] All curves plotted through the Hill equation were generated using Origin Pro 7.0 (OriginLab, Northampton, MA, USA). The significance of differences between the control and chanoclavine treatment was determined according to the p-value in the Student’s t-test. p-values of less than 0.05 were considered statistically significant.

Row | SMILES | Imax of normalized 5-HT concentration-response current | inhibition at 100 µM (100 µM compound with 100 µM 5-HT, −80 mV, read-out: inhibition of I5-HT) | maximum inhibition (Imax) (Hill fit, co-application with 100 µM 5-HT, −80 mV) | effect of co-application with 5-HT on current (various concentrations with 100 µM 5-HT) | effect of compound alone (without 5-HT) (−80 mV holding potential, data not shown)
1 | NCCc1c[nH]c2ccc(O)cc12 [5-HT, 5-hydroxytryptamine, reference compound] | 99.1 ± 14.2 |  |  |  | 
2 | C[C@@H](CO)NC(=O)[C@@H]1C=C2c3cccc4[nH]cc(c34)C[C@H]2N(C)C1 [ergonovine, reference compound] |  | 1.1 ± 4.8% | 15 ± 5.7% | did not show any noticeable reduction | no change
